pIC50: −log10 of the molar value. Blank lines part the entries; values can stand above or below the compound they belong to.
What was measured:
[1] = In Vivo Pharmacokinetics Assay; parameters: species or system mouse; conditions: oral dose of 10 mg/kg
Protocol: (§1) Full pharmacokinetics study: Male Balb/c mice (n=3, body weights 22-25 g) or male Wistar rats (n=3, body weights 250-300 g) were administered the test compound intravenously via the lateral tail vein or orally via gavage. The formulation was typically a 2.5 mg/mL solution of the compound in 75% PEG300 and 25% D5W. Six blood samples of 50 μL each were collected serially for 24 h after dosing. The blood samples were centrifuged to separate the plasma. Plasma samples were analyzed and quantified by LC-MS/MS.
as §1, with “Rapid” for “Full”, “intravenously (IV)” for “intravenously”, “orally (PO)” for “orally”, “The blood samples were centrifuged to separate the plasma.” left out
For both full and rapid pharmacokinetics studies, the following parameters were calculated by non-compartmental regression analysis using Winnonlin 5.0 software (Pharsight, Mountain View, Calif., USA): plasma clearance (Cl), plasma maximum concentration (Cmax), plasma area-under-the-concentration-time-curve (AUC0-inf), and percent oral bioavailability (F %).

SW620 cells = experiment: SW620 Cell Viability Assay (Cell Titer Glo); type: cell-based; conditions: 9 serial dilutions between 10 and 0.002 μM, FIG. 1
Protocol: SW620 cells were seeded in 1640 RPMI+10% FBS at a density of 1500 cells per 96-well in black walled, clear bottom tissue culture treated plates. Test compounds were serially diluted in DMSO then added to the cells (final DMSO concentration of 0.1%) and incubated at 37° C. and 5% CO2 for 4 days. To measure cell viability, cell plates were brought to room temperature, culture media was removed, and 200 μl of Cell Titer-Glo reagent (Promega, kit components mixed as per the manufacturer's protocol then diluted 1:2 with growth media) was added to each well. Plates were shaken for 5 minutes, then incubated at room temperature for 5 minutes, and the luminescence was measured (Trilux, Perkin Elmer).

A375 cells = experiment: A375 Cellular Proliferation Assay (A375 CP); type: cell-based; conditions: Homo sapiens, A-375, 48 h; A375-luc cells, 2 days
Protocol: A375-luc cells engineered to express luciferase are plated to 384-well white clear bottom plates as 1,500 cells/50 μl/well in DMEM containing 10% FBS. Compounds of the invention dissolved in 100% DMSO at appropriate concentrations are transferred to the cells by a robotic Pin Tool (100 nl). The cells are incubated for 2 days at […], then 25 μl of BrightGlo™ is added to each well and the plates are read by luminescence. The concentration of each compound for 50% inhibition (IC50) was calculated by non-linear regression using XL Fit data analysis software.

p38α MAP Kinase = experiment: A549 p38α MAP Kinase Bright-Glo Reporter Gene Assay; type: cell-based; conditions: ratio of p38 RGA IC50 to A375 CP IC50
Protocol: A549 cells were stably-transfected with the IL-8 promoter driven reporter, pGL3-IL8-Luc. The cells were plated at 4×10^5/ml into 384-well solid white plates (40 ul/well, 5% CD-FBS, 1×P/S, DMEM) and were incubated overnight (18-20 hours) at 37° C. Test compounds were serially diluted in DMSO, then 50 nl of test solution was added to the incubation (final DMSO concentration of 0.1%). After incubating with test compound for 30 min, cells were stimulated with 1 ng/ml IL-1 beta (10 ul of 5 ng/ml solution per well). Bright-Glo (25 ul/well) was added to measure luciferase expression after 7-8 hours of stimulation.

- AUC (total drug exposure) [1]: 30 ± 4 µM·h
Structure (SMILES): COC(=O)N[C@@H](C)CNc1nccc(-c2cn(C(C)C)nc2-c2cc(Cl)cc(NS(C)(=O)=O)c2F)n1 [Compound 9, Methyl N-[(2S)-1-({4-[3-(5-chloro-2-fluoro-3-methanesulfonamidophenyl)-1-(propan-2-yl)-1H-pyrazol-4-yl]pyrimidin-2-yl}amino)propan-2-yl]carbamate]
- Effect on cellular proliferation (SW620 cells): induction in cellular proliferation

- pIC50 (A375 cells): < 4.70
Structure (SMILES): COC(=O)N[C@@H](C)CNc1nccc(-c2cn(C(C)C)nc2-c2cc(NS(C)(=O)=O)c(C)c(OC)c2)n1 [Compound 27]

Structure (SMILES): CNc1nccc(-c2cn(C(C)C)nc2-c2cc(Cl)cc(NS(C)(=O)=O)c2F)n1 [Compound 29, N-(5-chloro-2-fluoro-3-{4-[2-(methylamino)pyrimidin-4-yl]-1-(propan-2-yl)-1H-pyrazol-3-yl}phenyl)methanesulfonamide]
- (p38 RGA)/(A375) ratio (p38α MAP Kinase): 220

Structure (SMILES): COC(=O)NC[C@H](C)Nc1nccc(-c2cn(C(C)C)nc2-c2cc(Cl)cc(NS(C)(=O)=O)c2F)n1 [Compound 32, Methyl N-[(2S)-2-({4-[3-(5-chloro-2-fluoro-3-methanesulfonamidophenyl)-1-(propan-2-yl)-1H-pyrazol-4-yl]pyrimidin-2-yl}amino)propyl]carbamate]
- (p38 RGA)/(A375) ratio (p38α MAP Kinase): 91

From US9593100B2, “Compounds and compositions as protein kinase inhibitors” (Array BioPharma, Inc., priority 2009, dated 2017)
